Where a name gives a salt, the structure may show the parent alone.
Legend:
male C57BL/6J mice [1] = experiment: Glucose excursion during oral glucose tolerance test in mice; type: in vivo; details: for % Reduction in 2-h glucose AUC vs. vehicle: OGTT, AUC 0 to 120 min, B6, B1, A14 30 mg/kg, linagliptin 0.3 mg/kg, metformin 300 mg/kg, dosed 1 h before glucose
Experimental: The effects of GPR40 agonists of Formula (B) and a GPR119 agonist of Formula (A) alone and in combination on glucose excursion during an oral glucose tolerance test were assessed in mice. The effects of the combination of a compound of Formula (A) and compounds of Formula (B) with linagliptin (a DPP-4 inhibitor) or metformin were also assessed. Male C57BL/6J mice, approximately 10 weeks old, were acclimated to the facility and the oral dosing procedure. Mice were randomized into balanced treatment groups using body weight. Baseline glucose was assessed immediately before compound administration. […] Blood was assessed for glucose levels 20 min, 40 min, 60 min, and 120 min post D-(+)-glucose administration. The AUCs for blood glucose measures were calculated for each treatment from 0 to 120 min. Statistical analysis was performed on AUCs using one-way ANOVA versus vehicle, with Tukey's post-test.

[2] = system: primary human ileal crypt cultures; experiment: GLP-1 secretion in human ileal crypt cultures; type: cell-based; details: 30 μM
Experimental: The potential for the combination of a compound of Formula (A) and a compound of Formula (B) to induce gut hormone secretion from EECs was assessed using primary human ileal crypt cultures and compared to the effect of the individual agents.

male C57BL/6J mice [3] = experiment: Gut hormone (GLP-1) secretion in mice, plasma GLP-1 after oral gavage; type: in vivo; details: 30 mg/kg of each compound
Experimental: To determine whether activating two receptors simultaneously results in increased effects on hormone release, representative GPR40 agonists of Formula (B) were tested in combination with a GPR119 agonist of Formula (A). GLP-1 was measured at 5 and 17 h post dose. For the dose titration study, male C57BL/6J mice were acclimated to the facility and the dosing procedure. Mice were weighed and then fasted for 4 h. The mice were administered vehicle, a GPR40 agonist of Formula (B) at 30 mg/kg, a GPR119 agonist of Formula (A) at 30 mg/kg, and the GPR40 agonist of Formula (B) at 0.3, 1, 3, 10, and 30 mg/kg doses in combination with the GPR119 agonist of Formula (A) at 30 mg/kg by oral gavage. Blood was collected at 5 h post-dose or 17 h post-dose, and plasma was assayed for GLP-1.

[4] = system: diet-induced-obese (DIO) mice; experiment: 14-day weight loss in DIO mice; type: in vivo; details: BID, 13 or 14 days
Experimental: The effects of a GPR40 Agonist of Formula (B) alone and in combination with a GPR119 Agonist of Formula (A) on body weight were assessed in diet-induced-obese (DIO) mice over 14 days.
Male C57BL/6J DIO mice, approximately 16 weeks old (Jackson Laboratories), were provided 60% high fat diet and water ad libitum. Animals were dosed BID (two times a day) with vehicle for an approximately 3-week until body weight had stabilized. At approximately 20 weeks of age, the mice were randomized into treatment groups (n=8/group) by body weight (range of 37 to 55 g) as well as food intake, and body weight change measured over a two-day baseline period. In order to maximize time on target throughout the day, compounds were administered BID, 8 h apart. Food intake and body weight were measured daily.

human GPR119 (hGPR119) = target: T1, human GPR119 (hGPR119) (Homo sapiens, UniProt Q8TDV5); experiment: cAMP accumulation assay, CHO-K1 cells stably expressing human GPR119; type: cell-based; details: cAMP HTRF, 60 minutes
T1 construct: expressed in transfected cells
T1 sequence (Q8TDV5 1-335): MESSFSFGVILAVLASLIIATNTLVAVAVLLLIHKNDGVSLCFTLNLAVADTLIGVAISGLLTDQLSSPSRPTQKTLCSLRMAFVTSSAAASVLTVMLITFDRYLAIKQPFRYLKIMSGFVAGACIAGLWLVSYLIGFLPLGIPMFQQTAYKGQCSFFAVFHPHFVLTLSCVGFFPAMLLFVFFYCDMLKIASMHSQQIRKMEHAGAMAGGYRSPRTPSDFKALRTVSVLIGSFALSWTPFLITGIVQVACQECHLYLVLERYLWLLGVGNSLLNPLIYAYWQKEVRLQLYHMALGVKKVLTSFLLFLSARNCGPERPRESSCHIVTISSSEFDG
Experimental: CHO-K1 cells stably expressing human GPR119 (hGPR119) were prepared by transfection of a GPR119-carrying plasmid using Lipofectamine 2000 (following manufacturer instructions). A stable cell line was established using the limiting dilution method with geneticine selection. Assay-ready frozen (ARF) cells were prepared and used throughout the study.
The assay was performed in a 384-well plate format using the cAMP Gs dynamic assay kit from Cisbio. ARF cells expressing hGPR119 were thawed, washed and then resuspended in cAMP stimulation buffer at a cell density of 1.1×10^6 cells/mL. Cells were plated at a density of ˜10,000 cells/well (9 μL/well). Dose response curves for the tested compounds were prepared in a cAMP stimulation buffer, containing 0.1% Tween 80 at 4 fold the final concentration. The compounds were then transferred to the cell plates using BRAVO (3 μL/well) and the plates were incubated for 60 minutes at 37° C./5% CO2. Detection buffer (10 μL, prepared as described in the cAMP Gs dynamic kit) were added to each well, and the plates were incubated at ambient temperature for 1 hr.
RT-FRET was measured using a ClarioSTAR plate reader, calculating the ratio between emissions at 665 nm and 620 nm (HTRF ratio). The HTRF ratio for positive (Max) and negative (Min) controls were used to normalize HTRF data and generate values for % activity. EC50 and Max activity values were determined using a standard 4-parameter fit.

human GPR40 = target: T2, human GPR40 (Homo sapiens, UniProt O14842); experiment: Inositol phosphate (IP1) accumulation assay, CHO-K1 cells expressing human GPR40; type: cell-based; details: CHO hFFAR1 cells, IP1 HTRF, 90 min
T2 construct: host or cells: CHO-K1
T2 sequence (O14842 whole entry): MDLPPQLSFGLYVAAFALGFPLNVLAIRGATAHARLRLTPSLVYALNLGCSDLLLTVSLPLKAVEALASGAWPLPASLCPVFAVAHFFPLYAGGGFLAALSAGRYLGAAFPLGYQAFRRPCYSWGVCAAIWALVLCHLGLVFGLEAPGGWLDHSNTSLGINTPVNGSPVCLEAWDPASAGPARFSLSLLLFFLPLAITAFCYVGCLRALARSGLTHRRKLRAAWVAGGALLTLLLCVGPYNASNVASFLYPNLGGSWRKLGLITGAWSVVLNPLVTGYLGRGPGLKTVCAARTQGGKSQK
Experimental: CHO-K1 cells expressing human GPR40 were purchased from DiscoverX (95-1005C2). HEK293 cells expressing mouse FFAR1 were prepared using a mouse FFAR1 carrying plasmid purchased from OriGene Technologies (MR222997). The cells were transfected using Lipofectamine 2000 using manufacturer instructions and stable cell line was established from a single cell using geneticine selection. Assay ready frozen (ARF) cells were prepared and used throughout the study.
The assay was performed in a 384-well plate format using IP1 assay kit from Cis-Bio. ARF cells expressing FFAR1 (mouse and human) were thawed, washed and then plated in the appropriate medium (F12 based medium for CHO hFFAR1 and DMEM based medium for HEK293 mFFAR1—both were supplemented with 10% FBS and penicillin/streptomycin). 20 μL of 3.5×10^5 cells/mL were plated on a Poly D-Lysine coated 384-well white plate. The cells were then incubated for 16 hr at 37° C./5% CO2. After 16 hr the medium was removed and 15 μL of stimulation buffer containing the test compounds was added to the cells. The plates were then incubated for 90 min at 37° C./5% CO2. […]
[…] was measured using ClarioSTAR plate reader, calculating the ratio between emissions at 665 nm and 620 nm (HTRF ratio). […] EC50 and Max activity values were determined using a standard 4-parameter fit.

EC50 (human GPR119 (hGPR119)) [nM]	Compound	% Reduction in 2-h glucose AUC vs. vehicle (male C57BL/6J mice [1]) [%]	GLP-1 (fold increase) [2] [fold increase]	GLP-1 (fold increase) (male C57BL/6J mice [3]; 5 h post dose)	GLP-1 (fold increase) (male C57BL/6J mice [3]; 17 h post dose)	also measured
–	CN(C)C(=N)N=C(N)N [metformin, reference compound]	26	–	–	–	post-prandial glucose excursion (male C57BL/6J mice [1]; OGTT in mice): suppressed post-prandial glucose excursion
–	COc1ccc(CCCC(C)(C)C)c(N2CCC(COc3cccc([C@@H](CP(C)(=O)O)C4CC4)c3)CC2)c1 [Compound B6, ((S)-2-cyclopropyl-2-(3-((1-(2-(4,4-dimethylpentyl)-5-methoxyphenyl)piperidin-4-yl)methoxy)phenyl)ethyl)(methyl)phosphinic acid]	21	4.0	3.2	1.9	% Weight Loss vs Vehicle ([4]; Study 2, DIO mice): 5.2%
100 to 1000	CCCc1cnc(N2CCC(CCCOc3cc(F)c(CC(=O)N4CC(C(=O)NCCC[N+](C)(C)C)C4)c(F)c3)CC2)nc1 [Compound A13, 3-[[1-[2-[2,6-difluoro-4-[3-[1-(5-propylpyrimidin-2-yl)-4-piperidyl]propoxy]phenyl]acetyl]azetidine-3-carbonyl|amino]propyl-trimethyl-ammonium formate]	–	–	–	–	–
100 to 1000	O=C(NCCCCS(=O)(=O)O)C1CN(C(=O)Cc2ccc(OCCCC3CCN(c4ncc(Cl)cn4)CC3)cc2F)C1 [Compound A65, 4-[[1-[2-[4-[3-[1-(5-chloropyrimidin-2-yl)-4-piperidyl]propoxy]-2-fluoro-phenyl]acetyl]azetidine-3-carbonyl]amino]butane-1-sulfonic acid]	–	–	–	–	–
–	COc1ccc(F)c([C@H]2CC[C@H](COc3cccc([C@H](C[P@](C)(=O)O)C4CC4)c3)CC2)c1 (single isomer, unassigned) [Compound B1]	14	5.5	1.9	1.4	EC50 (human GPR40): ≤ 50 nM; % Weight Loss vs Vehicle ([4]; Study 1, DIO mice): 3.1%
–	COc1ccc(F)c([C@H]2CC[C@H](COc3cccc([C@@H](C[P@@](C)(=O)O)C4CC4)c3)CC2)c1 (single isomer, unassigned) [Compound B2]	–	–	–	–	EC50 (human GPR40): 50 to 250 nM
≤ 100	CCc1cnc(N2CCC(CCCOc3ccc(CC(=O)N4CC(CNC[C@H](O)[C@H](O)[C@@H](O)[C@H](O)C(=O)O)C4)c(F)c3)CC2)nc1 [Compound A36, (2S,3R,4S,5S)-6-[[1-[2-[4-[3-[1-(5-ethylpyrimidin-2-yl)-4-piperidyl]propoxy]-2-fluoro-phenyl]acetyl]azetidin-3-yl]methylamino]-2,3,4,5-tetrahydroxy-hexanoic acid]	–	–	–	–	–
–	O=C(Cc1ccc(OCCCC2CCN(c3ncc(Cl)cn3)CC2)cc1F)N1CC(CNC[C@H](O)[C@@H](O)[C@H](O)[C@H](O)CO)C1 [Compound A14, 2-[4-[3-[1-(5-chloropyrimidin-2-yl)-4-piperidyl]propoxy]-2-fluoro-phenyl]-1-[3-[[[(2S,3R,4R,5R)-2,3,4,5,6-pentahydroxyhexyl]amino]methyl]azetidin-1-yl]ethanone]	14	1.9	1.6	1.3	% Weight Loss vs Vehicle ([4]; Study 1, DIO mice): 2.5%
–	CC#CCn1c(N2CCC[C@@H](N)C2)nc2c1c(=O)n(Cc1nc(C)c3ccccc3n1)c(=O)n2C [linagliptin, reference compound]	17	–	–	–	–
100 to 1000	COCc1cnc(N2CCC(CCCOc3ccc(CC(=O)N4CC(CNCCNC(=O)NC(CO)(CO)CO)C4)c(F)c3)CC2)nc1 [Compound A51]	–	–	–	–	–
